Measured values reported in patent US10961252B2, “Quinazoline and indole compounds to treat medical disorders” (Achillion Pharmaceuticals, Inc., priority 2016, dated 2021).
Where a name gives a salt, the structure may show the parent alone. Read-outs that look alike come from different tables or passages of the source.

Test system: Normal Human Serum (NHS)
Assay: Hemolysis assay: lysis of rabbit erythrocytes (RE) by Normal Human Serum (NHS)
Type: cell-based
Details: rabbit erythrocyte, 0.5 h, GVB0 plus 10 mM Mg-EGTA, 37° C.
Protocol: The hemolysis assay was previously described by G. Ruiz-Gomez, et al., J. Med. Chem. (2009) 52: 6042-6052. Prior to the assay, the optimum concentration of Normal Human Serum (NHS) needed to achieve 100% lysis of rabbit erythrocytes (RE) is determined by titration. In the assay, NHS (Complement Technology) is diluted in GVB^0 Buffer (0.1% gelatin, 5 mM Veronal, 145 mM NaCl, 0.025% NaN3, pH 7.3, Complement Technology) plus 10 mM Mg-EGTA and incubated with test compound at various concentrations for 15 minutes at 37° C. RE (Complement Technology) freshly suspended in GVB^0 plus 10 mM Mg-EGTA are added to a final concentration of 1×10^8 cells/mL and reactions are incubated for 30 minutes at 37° C. Positive control reactions (100% lysis) consist of GVB^0 plus 10 mM Mg-EGTA with NHS and RE but without test compound; negative control reactions (0% lysis) consist of GVB^0 plus 10 mM Mg-EGTA with RE only. Samples are centrifuged at 2000 g for 3 minutes and supernatants collected. Absorbance at 405 nm (A405) is recorded using a microplate spectrophotometer. IC50 values are calculated by nonlinear regression from the percentage of hemolysis as a function of test compound concentration.

[1] = Table 1, hemolysis of rabbit erythrocytes with NHS, read-out: IC50

SMILES | IC50 [1] | further results
CCN[C@H](CC(=O)N1CC2CCC(C1)N2c1nc(N)c2cc(OC)c(OC)c(F)c2n1)c1ccc(F)cc1 [Compound 13, (3R)-1-(8-(4-Amino-8-fluoro-6,7-dimethoxyquinazolin-2-yl)-3,8-diazabicyclo[3.2.1]octan-3-yl)-3-(ethylamino)-3-(4-fluorophenyl)propan-1-one] | < 1 µM | –
COc1cc2c(N)nc(N3CCN(C(=O)CC4NCCS4)CC3)nc2c(F)c1OC (stereo not drawn) [Compound 1, 1-(4-(4-Amino-8-fluoro-6,7-dimethoxyquinazolin-2-yl)piperazin-1-yl)-2-(thiazolidin-2-yl)ethan-1-one Hydrochloride] | > 10 µM | –
CCN[C@H](CC(=O)N1CCC(c2nc(N)c3cc(OC)c(OC)c(F)c3n2)CC1)c1ccc(F)cc1 [Compound 5, (R)-1-(4-(4-Amino-8-fluoro-6,7-dimethoxyquinazolin-2-yl)piperidin-1-yl)-3-(ethylamino)-3-(4-fluorophenyl)propan-1-one] | 1 to 10 µM | –
COc1cc2c(N)nc(N3CC4CCC(C3)N4C(=O)C=Cc3ccc(F)cc3)nc2c(F)c1OC [Compound 14, 1-(3-(4-Amino-8-fluoro-6,7-dimethoxyquinazolin-2-yl)-3,8-diazabicyclo[3.2.1]octan-8-yl)-3-(4-fluorophenyl)prop-2-en-1-one] | > 10 µM | –
COc1cc2c(N)nc(C3=CCN(C(=O)C[C@@H]4C[C@@H]5CCCC[C@@H]5N4)CC3)nc2c(F)c1OC [Compound 18, 1-(4-(4-Amino-8-fluoro-6,7-dimethoxyquinazolin-2-yl)-3,6-dihydropyridin-1(2H)-yl)-2-((2S,3aS,7aS)-octahydro-1H-indol-2-yl)ethan-1-one TFA salt] | – | IC50 (Table 2, hemolysis of rabbit erythrocytes with NHS, read-out: IC50 (Stars)): < 1 µM
COc1cc(C)c2[nH]ccc2c1CN1CCC(F)(F)CC1c1ccc(C(=O)O)cc1 (stereo not drawn) [Compound 19, 4-(4,4-difluoro-1-((5-methoxy-7-methyl-1H-indol-4-yl)methyl)piperidin-2-yl)benzoic Acid] | – | IC50 (Table 3, hemolysis of rabbit erythrocytes with NHS, read-out: IC50 (Stars)): > 10 µM
